What was measured:
Format in all cases: biochemical
PTPN2 [1] = molecular target: T1, PTPN2 (Homo sapiens, UniProt P17706); assay: RP-UFLC phosphatase assay with FAM-pStat1 peptide
T1 construct: full length human PTPN2 (TC45 variant), 6xHis-tagged
T1 sequence (P17706 1-381 limits assumed): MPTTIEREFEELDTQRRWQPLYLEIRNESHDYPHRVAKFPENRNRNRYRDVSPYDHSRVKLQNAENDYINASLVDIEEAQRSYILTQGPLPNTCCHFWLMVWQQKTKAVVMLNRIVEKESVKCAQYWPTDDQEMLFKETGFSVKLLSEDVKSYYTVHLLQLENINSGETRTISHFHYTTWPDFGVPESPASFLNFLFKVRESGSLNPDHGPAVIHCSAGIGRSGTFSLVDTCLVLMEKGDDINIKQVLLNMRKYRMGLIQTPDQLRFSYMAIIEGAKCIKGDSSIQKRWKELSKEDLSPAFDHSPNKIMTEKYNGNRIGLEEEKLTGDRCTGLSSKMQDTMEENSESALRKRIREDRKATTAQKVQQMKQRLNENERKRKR

PTPN2 [2] = molecular target: T1, PTPN2; assay: dephosphorylation of chromogenic substrate by purified enzyme
PTPN2 [3] = molecular target: T1, PTPN2; assay: RP-UFLC phosphatase assay with FAM-pStat1 peptide; time- and concentration-dependent inactivation kinetics (ki […] ^-1 min^-1)

For `[O]=[V]([OH])([OH])[OH]` [orthovanadate], the IC50 (PTPN2 [1]) was about 1 µM.
`O=[N+]([O-])c1ccc(OP(=O)(O)O)cc1` [pNPP, p-nitrophenyl phosphate] was tested, and the “dephosphorylation of chromogenic substrate by purified enzyme” value (PTPN2 [2]) was “Purified PTPN2 was functional as demonstrated by the dephosphorylation of the non-proteinaceous and non-specific chromogenic substrate p-nitrophenyl phosphate (pNPP)”.
`C=CS(=O)(=O)Oc1ccccc1` [PVSN, phenyl vinyl sulfonate] showed an IC50 (PTPN2 [3]) of 180 µM.

Source: article PMC4455150, “A RP-UFLC Assay for Protein Tyrosine Phosphatases: Focus on Protein Tyrosine Phosphatase Non-Receptor Type 2 (PTPN2)” (Scientific Reports, 2015)
